Values joined by “and” are separate entries in the source; they are usually repeats but may differ in a detail not shown here. Equal values may be shown once.

For series [1], the target named is SmKRS (S. mansoni lysyl-tRNA synthetase), wild type (Schistosoma mansoni, UniProt A0A3Q0KK01). In words: Aminoacylation enzyme inhibition assay, SmKRS. The class given is biochemical. The note with it: 500 nM enzyme, 100 μM ATP, 500 μM L-lysine, 18 μM SmtRNALys, 37°C.
Procedure: Aminoacylation and enzyme inhibition assays for both KRSs were performed as described elsewhere [17, 48]. SmtRNA^Lys was refolded prior to enzyme assays by heating at 70°C for 10 minutes followed by addition of 10 mM MgCl2 and slow cooling to room temperature. Aminoacylation buffer for both worm KRSs contained 30 mM HEPES (pH 7.5), 150 mM NaCl, 30 mM KCl, 50 mM MgCl2, 1mM DTT, 100 μM ATP, 500 μM L-lysine, 18 μM SmtRNA^Lys, 2 U/ml E. coli inorganic pyrophosphatase (NEB) and 500 nM recombinant SmKRS or LlKRS protein at 37°C. Reaction at different time points was stopped by addition of 40 mM EDTA followed by transfer to ice. Recombinant maltose binding protein (MBP) was used as a control.
Series [2] relates to malaria blood stage. More on the design: method as in PMID 22704625. The note with it: cited from earlier work.
Series [3] has as its target T1, SmKRS (Schistosoma mansoni, UniProt A0A3Q0KK01). Nature of the series: Isothermal titration calorimetry, SmKRS. The series is classed as binding. The following applies: 30°C. The procedure:
(§1) ITC experiments were conducted at 30°C in the MicroCal ITC-200 apparatus (GE Healthcare) and results were fitted into graph using Microcal origin software. […] For LlKRS, titrations consisted of 0.4 μl of first injection followed by 39 injections of 1 μl with 150 s intervals between injections. For SmKRS, same titrations were performed with 120 s intervals.

The target in series [4] is human counterpart KRS (HsKRS). The note with it: read-out: Affinity for human counterpart KRS; cited from earlier work.
Series [5] concerns malaria liver stage. On the set-up: method as in PMID 22704625. The note with it: cited from earlier work.
Details of series [6]: method as in PMID 22704625. The following applies: main limitation as a lead molecule; cited from earlier work.
Series [7] has as its target T2, LlKRS (Loa loa, UniProt A0A1I7VQ84). In words: Isothermal titration calorimetry, LlKRS. The series is classed as binding. The following applies: 30°C. The procedure: as §1
(ITC needs no label: the signal is the heat of the interaction.)

Series [8] addresses Loa loa lysyl-tRNA synthetase (Loa loa). In words: SEC; gel permeation chromatography of the purified protein on a column calibrated with high molecular weight standards, protein buffer as mobile phase, 0.5 ml/min; elution at dimer size, no absorbance at tetrameric size. On the technique in general: SEC sorts molecules by how far they enter the pores of the column.
Series [9] concerns the target Schistosoma mansoni lysyl-tRNA synthetase (Schistosoma mansoni). The series is described as above.
Series [10] deals with T1, SmKRS. Nature of the series: Protein thermal shift assay, SmKRS. The following applies: ligand 20 μM, KRS 2 μM (10:1), 1 mM L-lysine. The class given is binding. The procedure:
(§2) Protein melt curve assays for both worm KRSs were performed as reported earlier. Both KRSs were diluted in buffer containing 20 mM Tris (pH 8.0), 200 mM NaCl, 5 mM MgCl2, 1 mM L-lysine and 2 X SYPRO orange dye (Life Technologies). […] Ligand bound and unbound samples of both KRSs were heated from 20 to 96°C at a rate of 1°C min^-1 and fluorescence signals were monitored by StepOnePlus quantitative real-time PCR system (Life Technologies). […] Each curve was an average of three measurements and data were analyzed using thermal shift software (Life technologies). Samples without the addition of ligands were used to determine thermal melting profile of apo proteins. […] Derivative Tm (melting temperature) was used for analysis.

Series [11] has as its target T2, LlKRS. Nature of the series: Protein thermal shift assay, LlKRS. The class given is binding. The following applies: ligand 20 μM, KRS 2 μM (10:1), 1 mM L-lysine. The method, then:
as §2

For series [12], the target named is Human-like LlKRS V329Q/S346T mutant (Loa loa, UniProt A0A1I7VQ84). The class given is binding. The note with it: ligand 20 μM, KRS 2 μM (ten fold), 1 mM L-lysine.

In the case of `C[C@H]1CCC[C@H](C[C@H]2Cc3cc(O)cc(O)c3C(=O)O2)O1` [cladosporin], in [1], the 50% inhibitory concentration (IC50) is 97 nM and ~97 nM. Further, the IC50 in [2] is below 100 nM. In addition, in series [3], the “n Value (one site model), SmKRS” value was determined as 0.979 ±0.00; the “ΔH (ITC), SmKRS” value is -16.59 ± 0.2013 kcal/mol; the “ΔS (ITC), SmKRS” value is reported as -21.7 cal/mol/deg. For the same compound, the Kd in series [3] (PBS pH 7.4, 1 mM L-Lys, 2 mM MgCl2, read-out: Kd (ITC), SmKRS) was 62.8 ± 7.8 nM. Besides, the Kd in [4] was 3300 nM. Besides, the IC50 in series [5] was below 100 nM. In series [6], the Bioavailability entry is “Poor”. For the same compound, in series [7], the “n Value (one site model), LlKRS” value is recorded as 0.821 ± 0.01; the “ΔH (ITC), LlKRS” value was -17.28 ± 0.3965 kcal/mol; the “ΔS (ITC), LlKRS” value is given as -24.9 cal/mol/deg.
Regarding Loa loa lysyl-tRNA synthetase (enzyme), the stoichiometry N in [8] was 2.
With “Schistosoma mansoni lysyl-tRNA synthetase (enzyme)”, in [9], the stoichiometry N worked out at 2.
“adenosine 5’-(β, γ-imido) triphosphate [AMPPNP]”: the “Thermal shift of SmKRS” value in series [10] is ~ 0.4 °C. In addition, in series [11], the “Thermal shift of LlKRS” value is ~ 0.3 °C. Further, the “Thermal shift of human-like LlKRS” value in [12] was ~ 0.4 °C.

In general, IC50 refers to the concentration needed to halve the response being measured. For orientation: stoichiometry N means a count of units in the complex or per binding partner.

Source of the values: PMC5091859, “Protein Translation Enzyme lysyl-tRNA Synthetase Presents a New Target for Drug Development against Causative Agents of Loiasis and Schistosomiasis” (PLoS Neglected Tropical Diseases, 2016).
